Assays:
Caspase-8 = Caspase-8 (Homo sapiens, UniProt Q14790); experiment: Inhibition of human recombinant caspase 8
Caspase-6 = target: T1, Caspase-6 (Homo sapiens, UniProt P55212); experiment: Inhibition of human recombinant caspase 6
T1 sequence (P55212 whole entry): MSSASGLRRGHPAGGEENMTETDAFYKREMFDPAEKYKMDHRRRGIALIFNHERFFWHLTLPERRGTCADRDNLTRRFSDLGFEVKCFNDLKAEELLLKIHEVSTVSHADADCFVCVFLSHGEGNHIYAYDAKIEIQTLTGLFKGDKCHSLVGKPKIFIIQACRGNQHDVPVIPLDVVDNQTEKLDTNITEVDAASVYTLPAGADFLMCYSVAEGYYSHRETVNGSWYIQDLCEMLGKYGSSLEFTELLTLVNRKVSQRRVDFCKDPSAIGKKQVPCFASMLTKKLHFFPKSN

Caspase-1 = target: T2, Caspase-1 (Homo sapiens, UniProt P29466); experiment: Inhibition of human recombinant caspase 1
T2 sequence (P29466 whole entry): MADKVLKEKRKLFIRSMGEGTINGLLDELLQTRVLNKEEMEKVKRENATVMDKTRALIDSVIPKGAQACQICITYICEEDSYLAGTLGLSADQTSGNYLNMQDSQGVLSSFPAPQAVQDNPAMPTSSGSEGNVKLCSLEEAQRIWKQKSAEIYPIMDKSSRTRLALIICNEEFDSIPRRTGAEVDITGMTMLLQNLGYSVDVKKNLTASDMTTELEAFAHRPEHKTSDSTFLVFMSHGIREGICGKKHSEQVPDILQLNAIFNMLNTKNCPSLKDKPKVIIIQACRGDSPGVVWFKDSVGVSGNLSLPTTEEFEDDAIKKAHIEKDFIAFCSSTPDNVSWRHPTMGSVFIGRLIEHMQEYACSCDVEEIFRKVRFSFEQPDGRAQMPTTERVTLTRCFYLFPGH

Caspase-3 = target: T3, Caspase-3 (Homo sapiens, UniProt P42574); experiment: Inhibition of human recombinant caspase 3
T3 sequence (P42574 whole entry): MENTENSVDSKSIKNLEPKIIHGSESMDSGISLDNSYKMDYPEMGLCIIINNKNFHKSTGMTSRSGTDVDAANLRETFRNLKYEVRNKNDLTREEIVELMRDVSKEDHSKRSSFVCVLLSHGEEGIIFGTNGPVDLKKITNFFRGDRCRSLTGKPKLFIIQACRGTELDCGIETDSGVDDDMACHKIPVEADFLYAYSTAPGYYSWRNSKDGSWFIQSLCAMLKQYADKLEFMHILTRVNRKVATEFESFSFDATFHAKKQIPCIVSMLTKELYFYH

Rattus norvegicus [1] = organism: Rattus norvegicus; experiment: Increase in uptake in liver of cycloheximide-treated Sprague-Dawley rat relative to control after 1 hr; type: ADME, organism-based; conditions: in vivo
Rattus norvegicus [2] = organism: Rattus norvegicus; experiment: Increase in uptake in spleen of cycloheximide-treated Sprague-Dawley rat relative to control after 1 hr; type: ADME, organism-based; conditions: in vivo
Rattus norvegicus [3] = organism: Rattus norvegicus; experiment: Effect on uptake in fat of cycloheximide-treated Sprague-Dawley rat relative to control after 1 hr; type: ADME, organism-based, Adipose tissue; conditions: in vivo

Chain of Caspase-8 (Q14790 217-374 limits assumed): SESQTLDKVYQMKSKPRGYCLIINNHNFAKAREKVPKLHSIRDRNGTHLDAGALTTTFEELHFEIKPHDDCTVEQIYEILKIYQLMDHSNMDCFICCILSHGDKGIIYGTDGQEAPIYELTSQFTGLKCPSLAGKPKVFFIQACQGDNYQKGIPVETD
Chain of Caspase-8 (Q14790 385-479 limits assumed): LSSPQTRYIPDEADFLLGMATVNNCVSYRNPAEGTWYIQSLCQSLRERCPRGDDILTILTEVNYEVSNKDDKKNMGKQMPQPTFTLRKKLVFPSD

`O=C1C(=O)N(Cc2ccc(OCCF)cc2)c2ccc(S(=O)(=O)N3CCC[C@H]3COc3ccccc3)cc21` gave an IC50 (Caspase-8) of over 50 µM, an IC50 (Caspase-6) of 3.7 µM and an IC50 (Caspase-1) of over 50 µM. It also gave an IC50 (Caspase-3) of 0.0097 µM.

In the case of `O=C1C(=O)N(Cc2ccc(OCC[18F])cc2)c2ccc(S(=O)(=O)N3CCC[C@H]3COc3ccccc3)cc21`, the Activity (Rattus norvegicus [1]) is reported as 94%, the Activity (Rattus norvegicus [2]) is reported as 184% and the Activity (Rattus norvegicus [3]) is reported as “Not Active”.
